One assay relates to corticosterone. Kind of assay: Test 2: Effects on a rise in releasing of corticosterone caused by surgical stress. The class given is in vivo, mouse. Conditions: mice. As to the method: Test 2 Effects on a rise in releasing of stress hormone caused by surgical stress - effects on a rise in releasing of corticosterone, adrenocortical hormone.
Mice (ddY Slc male, 7weeks of age) handled by being fastened up before the day of experiment were divided equally into groups according to their weights on the experimental day (the number of mouse in one group was 6 to 7). Mice were anesthetized by i.p. injections of 2.5mg/mouse pentobarbital Na(Nembutal(brand name)), Dainihonseiyaku) and, 20 minutes later, the solvent(0.1N HCl/saline) or test medicine CP154,526HCl(0.3, 1, 3 or 10 mg/kg) were intravenously injected into the tail veins of mice at a dose of 10ml/Kg weight of mouse. 5 Minutes after injection, a midline incision was made in the abdomen, and in about one to two minutes movable bowel was draped externally, and then, abdominal part was covered with wet absorbent cotton with saline to prevent from drying. In 30 minutes after incision, while the bowel was draped externally, mice were decapitated and blood samples were collected into siliconized tubes, prechilled on ice, which contained 20ul of 100mM EDTA. Blood samples were centrifuged at 7,000 x g and 4°C for 20 minutes and the supernatant was obtained. Negative control mice not subjected to surgical stress were decapitated and blood samples were collected in 35 minutes after injection of the solvent alone. […]

The test system of assay [1] is adrenocorticotropic hormone (ACTH). The assay is described as follows: Test 1: Effects on a rise in releasing of ACTH caused by surgical stress. The class given is in vivo, mouse. To be noted: mice. How it is done: Test 1 Effects on a rise in releasing of stress hormone caused by surgical stress - effects on a rise in releasing of adrenocorticotropic hormone (ACTH)
Mice (ddY Slc male, 7 weeks of age) handled by being fastened up before the day of experiment were divided equally into groups according to their weights on the experimental day (the number of mouse in one group was 10). Mice were anesthetized by i.p. injection of 2.5mg/mouse pentobarbital Na (Nembutal(brand name), Dainihonseiyaku) and, 5 minutes later, the solvent(0.1N HCl/saline)alone or test medicine CP154,526HCl(0.3, 1 or 3 mg/kg)were intravenously injected into the tail veins of mice at a dose of 10ml/Kg weight of mouse. 10 minutes after injection, a midline incision was made in the abdomen and in about two minutes movable bowel was draped externally. Then 25 minutes after incision, 0.6ml of blood sample was collected from aorta abdominalis for 1 minute gradually by using prechilled syringes (needle size 25G) which were wetted with 100mM EDTA solution. Control mice not subjected to surgical stress were given medication by the injection of the solvent alone 5 minutes after anesthesia. […] Blood samples were centrifuged at 7,000 x g and 4°C for 20 minutes and the concentration of ACTH in supernatant was determined by IRMA method using Allegro ACTH kit (Nihon Medi+Physics Co., Ltd.). […]

For assay [2], the target named is T1, CRF type I(CRF-I) receptor (Homo sapiens, UniProt P34998).
T1 construct: expressed in transfected cells; membrane fraction
T1 sequence (P34998 24-415): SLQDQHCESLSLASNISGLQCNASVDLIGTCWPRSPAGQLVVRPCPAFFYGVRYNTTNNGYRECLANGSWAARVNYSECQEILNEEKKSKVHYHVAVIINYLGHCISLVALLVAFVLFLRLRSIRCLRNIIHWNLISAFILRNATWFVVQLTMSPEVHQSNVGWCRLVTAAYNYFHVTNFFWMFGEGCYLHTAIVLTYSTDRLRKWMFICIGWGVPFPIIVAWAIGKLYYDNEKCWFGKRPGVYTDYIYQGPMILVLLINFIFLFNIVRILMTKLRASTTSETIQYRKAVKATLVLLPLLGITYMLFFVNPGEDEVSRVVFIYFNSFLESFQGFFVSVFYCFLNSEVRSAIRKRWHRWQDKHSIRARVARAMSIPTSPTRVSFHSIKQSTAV
The assay is described as follows: in vitro Binding Assay using membrane fraction of recombinant cell (6EF2B) expressing CRF receptor gene (SPA method). Conditions: 125I-Tyr0-human/rat CRF, membrane fraction of 6EF2B cells (derived from Hela cell). As to the method: Experiment 1 : in vitro Binding Assay using membrane fraction of recombinant cell (6EF2B) with expression of CRF receptor gene
Preparation of membrane fraction:
Recombinant cells 6EF2B (derived from Hela cell), which express CRF type I(CRF-I) receptor gene stably, were cultivated in Eagle's MEM medium(10%FCS, 400ug/ml G418.1/100 penicillin/streptomycin). After cultivation, cells were suspended in 50mM Tris-HCl (pH7.2) solution containing 1mM EDTA and incubated at 25°C for 15 to 30 minutes. After that, every step was carried out at 4°C. Treated cells were suspended in 50mM Tris-HCl(pH7.2) containing 10% sucrose and homogenized by a Polytron(PT10-35 model). This step of homogenization was carried out at 25,000 rpm for 15 to 20 seconds and repeated twice or three times. In the course of this step the homogenates were inspected under a microscope. Homogenates were centrifuged at 600 x g for 5 minutes and the supernatant was centrifuged again at 40,000 x g for 30 minutes. The obtained pellet was resuspended in 50mM Tris-HCl(10mM MgCl2, 2mM EGTA) and the suspension was centrifuged again at 40,000 x g for 30minutes. The obtained pellet was used for further experiments as membrane fraction. The membrane fraction was diluted with 50mM Tris-HCl(10mM MgCl2, 2mM EGTA, 0.1%BSA, 100 kallikrein units/ml aprotinin, 0.1mM bacitracin, pH7.2) to have the concentration of 1mg/ml and then stored at -80°C. DC protein assay kit (produced by Bio-RAD) was used to determine the protein concentration of the membrane fraction.
Binding Assay using CRF-I receptor by means of SPA method:
Compounds to be evaluated were stored at the concentration of 10mM in DMSO. […] The assay buffer consisted of 50mM Tris-HCl (pH7.7) containing 100mM NaCl, 5mM KCl, 2mM CaCl2, 0.1% BSA, 0.1% bacitracin, 0.05% FCS and 5% horse serum. The reactions were carried out in 96-well Optiplate(Packard) in which to 50ul of the test substance solution, were added 50ul of WGA-beads & membrane fraction (50 to 100ug membrane fraction/10mg beads/ml) pre-coupled by stirring (rotating with 10rpm) at room temperature for 2 hours on the day of experiment, and 100ul of 0.4nM ^125I-Tyr^0-human/rat CRF(NEX-216, Dupont NEN), to be made up 200ul as total volume, and the mixture was incubated at 25°C for 3 hours. By the way, the step of pre-coupling was carried out by using beads solution (20mg/ml) suspended in 50mM Tris-HCl buffer solution (pH7.2) and after stirring beads were washed twice with Tris-HCl buffer and once with assay buffer by centrifugation (3000 rpm, 5 minutes). In order to measure total binding and non-specific binding activity, assay buffer solution and 1uM(final conc.) cold human /rat CRF(C-3042; SIGMA) solution were used respectively in place of test substance solution. After incubation, the mixture was centrifuged at 23 °C, 2,500 rpm for 5 minutes and the scintillation was counted with Top Count (Packard). An influence of color quench was corrected by standard curve made by using tartrazine as a quencher. Evaluation of samples was carried out several times.

In assay [3] the test system is adrenocorticotropic hormone(ACTH). Kind of assay: Experiment 2: Model of surgical stress in mouse (inhibitory action of rise in releasing of ACTH). The class given is in vivo. To be noted: ddY male mice, intravenous, surgical stress (abdominal incision, bowel draped externally). How it is done: Experiment 2: Model of surgical stress in mouse (Inhibitory action of rise in releasing of adrenocorticotropic hormone(ACTH))
ddY male mice(SLC, 7 to 8 weeks of age: weight 34 to 42g)were used for experiments. Mice were housed before use under controlled lighting condition (12hours light and 12hours dark cycle(lights on from 8:00 to 20:00) at 23±3 °C and 55±15% humidity, and maintained with basal diet and water ad labium. On the experimental day, mice were moved to experimental room and habituated before experiment for more than 1 hour. On the day before experiment, mice were previously handled (by being fastened up for 10 to 15 seconds like the case of i.p. injections) to habituate to the stress caused by handling.
Medicine and administration:
Test compound to be evaluated was dissolved in and diluted with physiological saline(Otsuka), 5% mannitol or 0.1N NaHCO3/saline. Then the test sample solution was given into veins of mice at a dose of 10ml/Kg body weight. The same solvent alone mentioned above was given into veins of control mice group at a dose of 10ml/Kg weight.
Mice were anesthetized by injection of pentobarbital Na (2.5mg/mouse i.p.) and after 15 minutes the solvent alone or the solution containing test sample to be evaluated were intravenously injected on the tails of mice at a dose of 10ml/ Kg weight of mouse. After more 10 minutes a midline incision was made in the abdomen and in two minutes bowel was draped externally. Then 2.5 minutes after incision 0.6ml of blood samples were collected from main vein abdominalis for 1 minute gradually by using prechilled syringes(needle size 25G), which were wetted with 100mM EDTA solution. Control mice not subjected to surgical stress were decapitated and blood samples were collected at 13 to 14 minutes after medication of solvent alone and to them added 20ul of 100mM EDTA. Blood samples collected were put into siliconized tubes and centrifuged at 10,000rpm and 4°C for 5 minutes. The concentration of ACTH in supernatant was determined by IRMA method using Allegro ACTH kit (Nihon Medi+Physics Co.,Ltd.). […]

Where [4] appears, read: read-out: IC50(nM) [experiment 1].

Molecules are shown by their SMILES. Like-named read-outs stand apart in the source and are kept apart here.

As for `CCCCN(CC)c1nc(C)nc2c1c(C)cn2-c1c(C)cc(C)cc1C.Cl` [CP-154,526 HCl, N-butyl-N-[2,5-dimethyl-7-(2,4,6-trimethylphenyl)-7H -pyrrolo[2,3-d]pyrimidine-4-yl]-N-ethylamine chloride], the “increase of corticosterone concentration in plasma” value with corticosterone (i.v. 0.3, 1, 3 or 10 mg/kg, surgical stress, viscera exposed 30 minutes, dose-dependently (Fig. 2)) is listed as “inhibited”. The “dose showing statistically significant inhibitory action on increase of corticosterone concentration in plasma” value in the assay with corticosterone (i.v., surgical stress (Fig. 2)) is “not less than 10 mg/Kg”. Besides, in assay [1] (i.v. 0.3, 1 or 3 mg/kg, surgical stress, dose-dependently (Fig. 1)), the “increase of ACTH concentration in plasma” value is recorded as “inhibited”. Moreover, the “dose showing statistically significant inhibitory action on increase of ACTH concentration in plasma” value in assay [1] (i.v., surgical stress (Fig. 1)) is “not less than 1 mg/Kg”.

For orientation: IC50 means the concentration that inhibits the measured activity by half. `CCc1cc(S(=O)(=O)N(CC)CC)cc(NC(=O)c2cc(Cl)c(O)c(Cl)c2)c1OC` [Example 6, 3,5-dichloro-N-(3-ethyl-5-diethylsulfamoyl-2-methoxyphenyl)-4-hydroxybenzamide]: the half-inhibitory concentration (IC50) in assay [2] (setting [4]) was found to be 218 nM.

As for `CCc1cc(S(=O)(=O)N(CC)CC)cc(NC(=O)c2cc(Cl)c([O-])c(Cl)c2)c1OC.[Na+]` [Example 8, sodium 2,6-dichloro-4-(N-(3-ethyl-5-diethylsulfamoyl-2-methoxyphenyl)carbamoyl)phenoxide], the IC50 in assay [2] (setting [4]) worked out at 195 nM. In addition, the “Inhibitory action on ACTH release (mg/kg) [experiment 2]” value in assay [3] lay within 10 to 30 mg/kg.

Turning to `CCc1cc(S(=O)(=O)N(CC)CC)cc(NC(=O)c2cc(Cl)c(OP(=O)(O)O)c(Cl)c2)c1OC.O=P(O)(O)O` [Example 9, phosphate 2,6-dichloro-4-(N-(3-ethyl-5-diethylsulfamoyl-2-methoxyphenyl)carbamoyl)phenylphosphate], in assay [2] (IC50(nM) [experiment 1]), the 50% inhibitory concentration (IC50) is 278 nM. Also, in assay [3], the “Inhibitory action on ACTH release (mg/kg) [experiment 2]” value is 10 to 30 mg/kg.

As to `CCN(CC)S(=O)(=O)c1cc(NC(=O)c2cc(Cl)c(O)c(Cl)c2)c(OC)c(OC)c1` [Example 10, 3,5-dichloro-N-(5-diethylsulfamoyl-2,3-dimethoxyphenyl)-4-hydroxybenzamide], the half-maximal inhibitory concentration (IC50) in assay [2] (setting [4]) was 165 nM.

With `CCN(CC)S(=O)(=O)c1cc(NC(=O)c2cc(Cl)c(O)c([N+](=O)[O-])c2)c(OC)c(OC)c1` [Example 11, 3-chloro-N-(5-diethylsulfamoyl-2,3-dimethoxyphenyl)-4-hydroxy-5-nitrobenzamide], the IC50 in assay [2] (setting [4]) came to 123 nM.

For the compound `CCN(CC)S(=O)(=O)c1cc(NC(=O)c2cc(Cl)c(O)c(Cl)c2)c(OC)c(N(C)C)c1` [Example 12, 3,5-dichloro-N-(5-diethylsulfamoyl-3-(dimethylamino)-2-methoxyphenyl)-4-hydroxybenzamide.], the IC50 in assay [2] (setting [4]) was found to be 57 nM.

The values above are taken from patent publication EP1293213A1, “PREVENTIVES/REMEDIES FOR POSTOPERATIVE STRESS” (Japan Tobacco Inc., priority 2000, dated 2001).
